Data: ChEMBL document CHEMBL1201862, “PubChem BioAssay data set” (2004)
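Results reflect a 48-hour exposure of cells in 96-well plates to compound at five concentrations. GI50 = concentration required for 50% inhibition of growth.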 Activity calls are given as the source filed them. No stated cut-off is given here; in the data, active = GI50 up to about 1.1 µM and inactive = higher.

Columns and labels:
Experiment in all cases: NCI tumour cell line growth inhibition, 48 h
786-0 = test system: 786-0
A498 = test system: A498
HOP-62 = test system: HOP-62
HOP-92 = test system: HOP-92
Hs-578T = test system: Hs-578T
IGROV-1 = test system: IGROV-1
K562 = test system: K562
KM12 = test system: KM12
MDA-MB-435 = test system: MDA-MB-435
NCI-H226 = test system: NCI-H226
NCI-H460 = test system: NCI-H460
OVCAR-3 = test system: OVCAR-3
PC-3 = test system: PC-3
RPMI-8226 = test system: RPMI-8226
SF-539 = test system: SF-539
SK-MEL-2 = test system: SK-MEL-2
SK-OV-3 = test system: SK-OV-3
SNB-75 = test system: SNB-75
TK-10 = test system: TK-10
UO-31 = test system: UO-31

| Compound | GI50 (786-0) | GI50 (A498) | GI50 (HOP-62) | GI50 (HOP-92) | GI50 (Hs-578T) | GI50 (IGROV-1) | GI50 (K562) | GI50 (KM12) | GI50 (MDA-MB-435) | GI50 (NCI-H226) | GI50 (NCI-H460) | GI50 (OVCAR-3) | GI50 (PC-3) | GI50 (RPMI-8226) | GI50 (SF-539) | GI50 (SK-MEL-2) | GI50 (SK-OV-3) | GI50 (SNB-75) | GI50 (TK-10) | GI50 (UO-31) |
| --- | --- | --- | --- | --- | --- | --- | --- | --- | --- | --- | --- | --- | --- | --- | --- | --- | --- | --- | --- | --- |
| Cc1cccc2c(NCCN(C)C)c3cccc(C(=O)NCCN(C)C)c3nc12 | 78.3 nM (active) | 918 nM (active) | 258 nM (active) | 218 nM (active) | 495 nM (active) | 171 nM (active) | 27.8 nM (active) | 69.2 nM (active) | 176 nM (active) | 728 nM (active) | < 36.1 nM (active) | 310 nM (active) | 356 nM (active) | 83.8 nM (active) | 64.9 nM (active) | 540 nM (active) | 226 nM (active) | 357 nM (active) | 445 nM (active) | 326 nM (active) |
| COC(=O)C1C(O)CCC2CN3CCc4c([nH]c5cccc(OC)c45)C3CC21 (stereo not given) | > 100000 nM (inactive) | > 100000 nM (inactive) | > 100000 nM (inactive) | > 100000 nM (inactive) | > 100000 nM (inactive) | > 100000 nM (inactive) | > 100000 nM (inactive) | > 100000 nM (inactive) | > 100000 nM (inactive) | > 100000 nM (inactive) | > 100000 nM (inactive) | > 100000 nM (inactive) | > 100000 nM (inactive) | > 100000 nM (inactive) | > 100000 nM (inactive) | > 100000 nM (inactive) | > 100000 nM (inactive) | > 100000 nM (inactive) | > 100000 nM (inactive) | 76000 nM (inactive) |
| CN(C)c1ccc(/C=C2\C[C@H]3[C@@H]4CCc5cc(OCCN6CCCC6)ccc5[C@H]4CC[C@]3(C)[C@H]2O)cc1 | 2130 nM (inactive) | 17800 nM (inactive) | 15100 nM (inactive) | 6070 nM (inactive) | 21800 nM (inactive) | 16100 nM (inactive) | 4740 nM (inactive) | 5710 nM (inactive) | 8430 nM (inactive) | 18700 nM (inactive) | 8070 nM (inactive) | 14600 nM (inactive) | 13800 nM (inactive) | 8280 nM (inactive) | 8320 nM (inactive) | 19300 nM (inactive) | 16600 nM (inactive) | 13800 nM (inactive) | 5500 nM (inactive) | 5650 nM (inactive) |
| O=c1[nH]/c(=C/c2ccc(OCc3ccccc3)cn2)c(=O)[nH]/c1=C/c1ccc(F)cc1 | 447 nM (active) | 834 nM (active) | 239 nM (active) | 586 nM (active) | 542 nM (active) | 335 nM (active) | 154 nM (active) | 344 nM (active) | 90.2 nM (active) | 2220 nM (inactive) | 541 nM (active) | 207 nM (active) | 632 nM (active) | 194 nM (active) | 923 nM (active) | 7350 nM (inactive) | 794 nM (active) | 409 nM (active) | 4360 nM (inactive) | 498 nM (active) |
| Nc1ccc2c(c1)N(C(=O)CCCC(=O)N1CC(CCl)c3ccc(N)cc31)CC2CCl (stereo not given) | 169 nM (active) | 1070 nM (active) | 262 nM (active) | 1970 nM (inactive) | 918 nM (active) | 411 nM (active) | 873 nM (active) | 948 nM (active) | 953 nM (active) | 22.6 nM (active) | 716 nM (active) | 971 nM (active) | 1080 nM (active) | 260 nM (active) | 461 nM (active) | 587 nM (active) | 2340 nM (inactive) | 535 nM (active) | 1530 nM (inactive) | 561 nM (active) |
| Cc1ncc([N+](=O)[O-])n1CCNC(=O)CCC(=O)NCCCn1ccnc1[N+](=O)[O-] | > 100000 nM (inactive) | > 100000 nM (inactive) | > 100000 nM (inactive) | 54000 nM (inactive) | > 100000 nM (inactive) | > 100000 nM (inactive) | > 100000 nM (inactive) | > 100000 nM (inactive) | > 100000 nM (inactive) | > 100000 nM (inactive) | > 100000 nM (inactive) | > 100000 nM (inactive) | > 100000 nM (inactive) | > 100000 nM (inactive) | > 100000 nM (inactive) | > 100000 nM (inactive) | > 100000 nM (inactive) | > 100000 nM (inactive) | > 100000 nM (inactive) | > 100000 nM (inactive) |
| COc1cc2c(c(OC)c1OC)-c1cccc(=O)cc1C(NC(C)=O)CC2 (stereo not given) | 136 nM (active) | 332 nM (active) | 172 nM (active) | 86.3 nM (active) | > 100000 nM (inactive) | 166 nM (active) | 33.5 nM (active) | 34.6 nM (active) | < 10 nM (active) | 845 nM (active) | 123 nM (active) | 46.3 nM (active) | 15.2 nM (active) | 26.7 nM (active) | 42 nM (active) | 69.8 nM (active) | 485 nM (active) | 39.1 nM (active) | > 28200 nM (inactive) | 4930 nM (inactive) |
